Reference: patent US8815233B2, “Method for treating pervasive development disorders” (Curemark LLC, priority 1999, dated 2014)

Legend:
autistic children [1] = experiment: CARS (Childhood Autism Rating Scale) test pre/post secretin in autistic children; type: in vivo, human; conditions: 16 autistic children
Protocol: Upon determining that a given child was likely to benefit from secretin administration based on the results of the fecal chymotrypsin test, the child was administered a CARS (Childhood Autism Rating Scale) test prior to being scheduled for secretin infusion.
(§1) For each of the 16 autistic children tested, a preferred secretin infusion process according to the present invention was performed involving the administering of 1 U/kg of body weight of Secretin-Ferring for a period of nine months at intervals of approximately 6 weeks. In addition, another CARS test was administered to each of the 16 autistic children 3 weeks post secretin administration to determine if their autism had changed post infusion.
A preferred secretin infusion process includes the initial step of prepping an arm of the candidate child with an IV injection of saline. A test dose of 1 U of Secretin-Ferring is then administered to the child. Approximately one minute after infusion, the child is examined for signs of allergic reaction including rash, increased heart rate, and increase of blood pressure. […] Subsequently, each child receives a 1 U/kg of body weight infusion of Secretin-Ferring approximately every 6 weeks for 9 months. It is to be understood that any commercially available form of secretin may be used.

autistic children [2] = experiment: Fecal Chymotrypsin Test after secretin infusion in autistic children; type: in vivo, human
Protocol: In this experiment, 16 children diagnosed as having autism were administered the following Fecal Chymotrypsin Test in accordance with an embodiment of the invention. First, approximately 2 grams of stool were collected from each child and placed in a sterile container (although it is to be understood that any quantity of stool may be collected, as 2 grams of stool is not a required amount). Each stool sample was then analyzed using, e.g., an enzymatic photospectrometry analysis as is known by those skilled in the art, to determine the level of fecal chymotrypsin in the stool. Although the enzymatic photospectrophotometry process is preferred, any suitable conventional method may be used for measuring the fecal chymotrypsin levels. The measured chymotrypsin levels of the 16 autistic children are illustrated in FIG. 13.
After determining the chymotrypsin levels of the stools, each of these levels were compared with threshold chymotrypsin levels to determine if the child was likely to benefit from secretin administration. By way of example, with the fecal chymotrypsin tests of the stool samples being performed at 30° C., normal levels of chymotrypsin are deemed to lie above 8.4 U/gram, whereas pathologically abnormal levels are deemed to lie below 4.2 U/gram. In addition, chymotrypsin levels between 8.4 U/gram and 4.2 U/gram are considered equivocal, and further testing of the individual's fecal chymotrypsin levels over a period of time should be performed.
as §1
A preferred secretin infusion process includes the initial step of prepping an arm of the candidate child with an IV injection of saline. A test dose of 1 U of Secretin-Ferring is then administered to the child. Approximately one minute after infusion, the child is examined for signs of allergic reaction including rash, increased heart rate, and increase of blood pressure. […] Subsequently, each child receives a 1 U/kg of body weight infusion of Secretin-Ferring approximately every 6 weeks for 9 months. […]
In this experiment, 37 autistic children with abnormal fecal chymotrypsin levels were administered secretin over the course of 6 months using the secretin infusion process described above. Their fecal chymotrypsin (FC) levels were measured weekly using the fecal chymotrypsin test described above.

[3] = tested on: children diagnosed with Autism; conditions: Horvath et al. 1998; secretin given as diagnostic procedure during upper gastrointestinal endoscopy; cited from earlier work

In the case of secretin, the “CARS component scores (except fear)” value (autistic children [1]; 3 weeks post secretin infusion) is reported as “improvement”, the “CARS fear component score” value (autistic children [1]; 3 weeks post secretin infusion) is reported as “increased” and the “CARS scores (overall)” value (autistic children [1]; approx. 3 weeks after first secretin administration, 1 U/kg IV, vs pre-secretin) is reported as “overall decrease”. The “fecal chymotrypsin level post-secretin administration” value (autistic children [2]; each of 16 autistic children, approx. one week after first infusion, 1 U/kg IV Secretin-Ferring, vs pre-secretin (all abnormal)) was “increased”, the “# Autistic Children w/Equivocal FC levels” value (autistic children [2]; of 37 children, 6 months post-secretin, pre-secretin 0, equivocal 4.2-8.4 U/gram) was 2 and the “# Autistic Children w/normal FC levels” value (autistic children [2]; of 37 children, 6 months post-secretin, pre-secretin 0, normal above 8.4 U/gram) was 34. The “# Autistic Children w/Abnormal FC levels” value (autistic children [2]; of 37 children, 6 months post-secretin, pre-secretin 37, abnormal below 4.2 U/gram) was 1 and the “symptoms associated with Autism after secretin administration” value [3] was “ameliorating the symptoms associated with Autism”.
